Experiments:
S6-RP = assay: Ex vivo FNAB drug sensitivity assay, S6-RP phosphorylation by Western blot; type: cell-based, human
Protocol: Tumor cells were collected by FNAB from the xenograft animals before the start of treatment using a sterile 25G short needle. Tumor samples were immediately transferred into 10 ml sterile prewarmed complete RPMI-1640 culture medium containing 10% FBS, penicillin (200 μg/ml), and streptomycin (200 μg/ml). Cells were incubated with 0.04% trypan blue (Sigma) dissolved in PBS (9.1 mM Na2HPO4, 1.7 mM NaH2PO4, and 150 mM NaCl, pH 7.4). The viable (membrane-intact) and dead cells were then counted using Neubauer hemocytometer and the total viable cell count was used to calculate final working volumes. Approximately 25,000 viable tumor cells were seeded into each well of a 6-well polypropylene microplate. Cells were treated in duplicates with vehicle (control), erlotinib (5 μM) or temsirolimus (1 μM) in a humidified 5% CO2 incubator at 37° C. for 6 hours. No fibroblast and endothelial cell growth was observed. Following treatment, non-adherent and adherent cells (only a few, collected by scraping) were pooled together and centrifuged at 500×g for 5 min at 4° C. After washing with PBS, cells were lysed in 100 μL of ice-cold lysis buffer (50 mM Tris-HCl, 0.25M NaCl, 0.1% (v/v) Triton X-100, 1 mM EDTA, 50 mM NaF, and 0.1 mM Na3VO4, pH 7.4) containing protease and phosphatase inhibitors (Roche Molecular Biochemicals) and analyzed by Western blot.
Protein concentrations obtained from FNAB samples were quantified before each experiment. Protein extracts (15 μg) were electrophoresed on a 10% (w/v) SDS-polyacrylamide gel. After electrotransfer to Immobilon-P membranes (Millipore), membranes were blocked at room temperature using SuperBlock (Pierce) for one hour. The primary antibodies were diluted at 1:1000 in 1:10 dilution of SuperBlock solution and the membranes were incubated with primary antibodies overnight at 4° C. The antibodies tested were phospho-ERK1/2 (Cell signal #9101), phospho-S6 Ribosomal Protein (Cell Signaling Technology, Beverly, Mass.) and total ERK1/2 (Cell Signaling Technology, Beverly, Mass.) and total S6 Ribosomal Protein (Cell Signaling Technology, Beverly, Mass.). The next day, the membranes were washed and incubated for 1 h at room temperature with horseradish peroxidase (HRP)-conjugated secondary antibodies, rabbit IgG-HRP (Santa Cruz Biotechnology), or mouse IgG-HRP (Santa Cruz Biotechnology) at a final dilution of 1:3000. […]
To test if tumor cells obtained by FNAB can be used in the ex vivo assays to predict tumor response in vivo, 25,000 viable cancer cells, as determined by trypan blue dye exclusion, were treated with erlotinib or temsirolimus for six hours, after which signal pathway inhibition was analyzed by Western blot. Under these cell culture conditions no fibroblast and endothelial cell growth was detected (data not shown). […]

p70S6K = assay: IHC staining of phospho-p70S6K in resected xenograft tumor tissue; type: in vivo, human
Protocol: At the completion of the treatment course, xenografted tissues were harvested and fixed in formalin for 24 hrs. The fixed tissues were paraffin-embedded and cut in 0.5 micron sections onto positively-charged glass slides for immunohistochemical (IHC) labeling. Analysis was performed to determine the IHC pharmacodynamic effects of the drug in the targeted pathway. For IHC staining, slides were deparaffinized and rehydrated in graded concentrations of alcohol by standard techniques before antigen retrieval in citrate buffer pH 6.0 for 20 minutes. Next, the slides were cooled for 20 minutes before washing in 1× TBST (Dako Corp. Carpinteria, Calif.). All staining was performed using a DAKO Autostainer at room temperature. Slides were incubated in 3% H2O2 for 10 minutes, followed by the appropriate dilution of primary antibody for 60 minutes. Tris-HCl (0.2M, pH 7.5) (Quality Biological, Inc, Gaithersburg, Md.) was used as the antibody diluent solution. Dilutions of antibodies used were as follows: Total ERK1/2 (Cell Signaling Technology, Beverly, Mass.) 1:25, p-ERK1/2 (Thr202/Tyr204) (Cell Signaling Technology, Beverly, Mass.) 1:50, p70S6K (Santa Cruz Biotechnology) 1:50, and pp70S6K (Cell Signaling Technology, Beverly, Mass.) 1:50. […]

S6 ribosomal protein = assay: Panc 265 xenograft FNAB cells treated ex vivo, S6 ribosomal protein phosphorylation; type: cell-based, human; details: Panc 265 FNAB cells; CCI-779 1 uM; 6 hours
Protocol: To obtain cancer cells, each animal tumor was sampled as described above. After collection of tumor FNAB samples, xenograft animals were subsequently treated with ZD1839 or CCI-779 for 28 days and tumor volumes were determined as described above. At day 7 of therapy, AD/DQ slides were prepared from tumor FNAB samples to retrospectively correlate the results of in vivo and ex vivo chemosentitivty tests from the same xenograft animal.
To determine viability of tumor cells obtained by FNAB, trypan blue dye exclusion assay was performed. The viability of tumor cells obtained by tumor FNAB from control animals was over 95%. Approximately 75,000 tumor cells were seeded into each well of a 6-well polypropylene microplate. Cells were treated in duplicates with vehicle (control) or with ZD1839 (5 uM) or CCI-779 (1 uM) in a humidified 5% CO2 incubator at 37° C. for different periods to determine the optimal treatment time to analyze drug effects.
After the treatment cells were collected, protein extracts were prepared and Western blot analysis was performed as described above. The ex vivo effect of ZD 1839 and CCI-779 on phosphorylation of ERK1/2 or S6 ribosomal proteins, respectively, was correlated with the in vivo data gathered from the FNAB smears prepared at day 7 of treatment.

SMILES: CO[C@H]1C[C@@H]2CC[C@@H](C)[C@@](O)(O2)C(=O)C(=O)N2CCCC[C@H]2C(=O)O[C@H]([C@H](C)C[C@@H]2CC[C@@H](OC(=O)C(C)(CO)CO)[C@H](OC)C2)CC(=O)[C@H](C)/C=C(\C)[C@@H](O)[C@@H](OC)C(=O)[C@H](C)C[C@H](C)/C=C/C=C/C=C/1C [temsirolimus, Temsirolimus]
- S6-RP phosphorylation ex vivo (S6-RP; all tumors of the xenograft panel sensitive to therapy, temsirolimus 1 μM, 6 hours): blocked S6-RP phosphorylation
- S6-RP phosphorylation ex vivo (S6-RP; cancer cells from pancreatic cancer patient 1, six hours): only partially decreased S6-RP phosphorylation
- phosphorylation of S6-RP ex vivo (S6-RP; cells from tumor A198, temsirolimus 1 μM, 6 hours): inhibited phosphorylation of S6-RP
- S6-RP phosphorylation ex vivo (S6-RP; tumor cells of pancreatic cancer patient 2 and 3, six hours): inhibited S6-RP phosphorylation
- IHC staining for phosphorylated p70S6K (p70S6K; tumor A194, in vivo treated with temsirolimus): no effect
- IHC staining for phosphorylated p70S6K (p70S6K; tumor A198, in vivo treated with temsirolimus): strongly decreased staining
- activity (phosphorylation) of target protein S6 ribosomal protein ex vivo (S6 ribosomal protein): successfully inhibited the activity of its target protein

Source: patent US20090325202A1, “Methods for Developing and Assessing Therapeutic Agents” (priority 2006, published 2009)
